From publication PMC3814616, “BRAF inhibitors suppress apoptosis through off-target inhibition of JNK signaling” (eLife, 2013)

Experiments:
[1] = target: T1, RIPK1 (Homo sapiens, UniProt Q13546); experiment: Quantitative competitive binding assay (KINOMEscan)
T1 construct: purchased KINOMEscan (DiscoveRx), San Diego, CA

[2] = target: T2, TAK1 (MAP3K7) (Homo sapiens, UniProt O43318); experiment: as above
T2 construct: purchased KINOMEscan (DiscoveRx), San Diego, CA

[3] = system: NOXA; experiment: Western blot, UV-induced NOXA expression; format: cell-based, human; details: cSCC and HaCaT cell lines, 1 μM
[4] = system: phospho-ERK; details: A375 and WM35
[5] = system: COLO16 cells; experiment: Doxorubicin-induced apoptosis, FACS; details: 1 μM, 24 hr
[6] = target: T3, MAP3K3 (Homo sapiens, UniProt Q99759); experiment: Quantitative competitive binding assay (KINOMEscan)
T3 construct: purchased KINOMEscan (DiscoveRx), San Diego, CA
T3 sequence (Q99759 whole entry): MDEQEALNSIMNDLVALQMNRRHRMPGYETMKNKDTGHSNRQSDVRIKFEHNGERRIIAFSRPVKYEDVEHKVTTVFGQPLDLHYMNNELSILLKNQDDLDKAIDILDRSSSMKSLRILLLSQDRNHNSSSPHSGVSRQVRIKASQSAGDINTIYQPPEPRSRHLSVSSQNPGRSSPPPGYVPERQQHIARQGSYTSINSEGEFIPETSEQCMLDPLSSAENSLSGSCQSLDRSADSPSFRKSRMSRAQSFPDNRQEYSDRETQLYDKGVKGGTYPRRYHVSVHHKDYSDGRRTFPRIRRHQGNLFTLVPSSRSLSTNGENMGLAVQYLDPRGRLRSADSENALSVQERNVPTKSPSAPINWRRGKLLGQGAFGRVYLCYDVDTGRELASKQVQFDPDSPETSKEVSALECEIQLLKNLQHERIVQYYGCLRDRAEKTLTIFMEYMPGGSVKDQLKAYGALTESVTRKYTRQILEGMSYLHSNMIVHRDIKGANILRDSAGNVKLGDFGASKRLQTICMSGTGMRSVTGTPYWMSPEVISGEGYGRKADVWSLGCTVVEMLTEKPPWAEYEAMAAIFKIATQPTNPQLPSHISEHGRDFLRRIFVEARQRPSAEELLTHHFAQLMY

[7] = target: T4, MAP3K2 (Homo sapiens, UniProt Q9Y2U5); experiment: as above
T4 construct: purchased KINOMEscan (DiscoveRx), San Diego, CA
T4 sequence (Q9Y2U5 1-619): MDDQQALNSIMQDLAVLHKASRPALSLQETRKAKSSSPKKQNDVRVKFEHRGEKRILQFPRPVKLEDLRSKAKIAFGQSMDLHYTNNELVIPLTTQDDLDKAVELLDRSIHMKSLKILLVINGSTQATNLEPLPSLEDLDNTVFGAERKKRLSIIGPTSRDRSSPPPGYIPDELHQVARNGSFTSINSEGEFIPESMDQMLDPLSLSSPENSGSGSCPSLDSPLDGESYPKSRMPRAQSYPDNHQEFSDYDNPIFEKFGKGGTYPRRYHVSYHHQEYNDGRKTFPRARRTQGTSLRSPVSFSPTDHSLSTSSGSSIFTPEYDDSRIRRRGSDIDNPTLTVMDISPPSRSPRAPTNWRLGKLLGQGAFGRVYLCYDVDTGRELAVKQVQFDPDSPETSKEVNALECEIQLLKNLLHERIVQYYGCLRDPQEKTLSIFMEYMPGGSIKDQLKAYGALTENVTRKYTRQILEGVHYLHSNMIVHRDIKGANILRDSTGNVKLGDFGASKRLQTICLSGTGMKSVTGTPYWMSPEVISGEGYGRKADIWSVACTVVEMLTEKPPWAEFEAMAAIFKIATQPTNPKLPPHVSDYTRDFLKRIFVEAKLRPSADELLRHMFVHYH

[8] = target: T5, FGR (Homo sapiens, UniProt P09769); experiment: as above
T5 construct: purchased KINOMEscan (DiscoveRx), San Diego, CA
T5 sequence (P09769 whole entry): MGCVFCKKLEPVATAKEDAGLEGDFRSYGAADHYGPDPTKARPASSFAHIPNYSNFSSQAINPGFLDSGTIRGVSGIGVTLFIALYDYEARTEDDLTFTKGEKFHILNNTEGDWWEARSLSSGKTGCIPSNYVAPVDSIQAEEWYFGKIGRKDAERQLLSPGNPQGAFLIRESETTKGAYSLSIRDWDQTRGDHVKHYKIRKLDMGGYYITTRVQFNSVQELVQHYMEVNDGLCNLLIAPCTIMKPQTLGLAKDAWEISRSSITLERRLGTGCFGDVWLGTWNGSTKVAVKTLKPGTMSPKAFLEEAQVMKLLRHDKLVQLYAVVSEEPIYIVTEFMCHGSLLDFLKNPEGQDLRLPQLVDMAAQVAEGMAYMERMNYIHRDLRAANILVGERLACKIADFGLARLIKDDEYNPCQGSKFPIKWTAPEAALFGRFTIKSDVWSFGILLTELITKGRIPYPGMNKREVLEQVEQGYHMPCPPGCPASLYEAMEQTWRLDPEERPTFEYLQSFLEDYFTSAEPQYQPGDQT

[9] = system: JNK and p38 isoforms; set-up: method as in Tsai et al., 2008; Bollag et al., 2010; details: ref Tsai et al., 2008; Bollag et al., 2010; cited from earlier work
[10] = target: T6, ZAK (Homo sapiens, UniProt Q9NYL2); experiment: Quantitative competitive binding assay (KINOMEscan)
T6 construct: purchased KINOMEscan (DiscoveRx), San Diego, CA

[11] = target: T7, MAP4K5 (Homo sapiens, UniProt Q9Y4K4); experiment: as above
T7 construct: purchased KINOMEscan (DiscoveRx), San Diego, CA
T7 sequence (Q9Y4K4 whole entry): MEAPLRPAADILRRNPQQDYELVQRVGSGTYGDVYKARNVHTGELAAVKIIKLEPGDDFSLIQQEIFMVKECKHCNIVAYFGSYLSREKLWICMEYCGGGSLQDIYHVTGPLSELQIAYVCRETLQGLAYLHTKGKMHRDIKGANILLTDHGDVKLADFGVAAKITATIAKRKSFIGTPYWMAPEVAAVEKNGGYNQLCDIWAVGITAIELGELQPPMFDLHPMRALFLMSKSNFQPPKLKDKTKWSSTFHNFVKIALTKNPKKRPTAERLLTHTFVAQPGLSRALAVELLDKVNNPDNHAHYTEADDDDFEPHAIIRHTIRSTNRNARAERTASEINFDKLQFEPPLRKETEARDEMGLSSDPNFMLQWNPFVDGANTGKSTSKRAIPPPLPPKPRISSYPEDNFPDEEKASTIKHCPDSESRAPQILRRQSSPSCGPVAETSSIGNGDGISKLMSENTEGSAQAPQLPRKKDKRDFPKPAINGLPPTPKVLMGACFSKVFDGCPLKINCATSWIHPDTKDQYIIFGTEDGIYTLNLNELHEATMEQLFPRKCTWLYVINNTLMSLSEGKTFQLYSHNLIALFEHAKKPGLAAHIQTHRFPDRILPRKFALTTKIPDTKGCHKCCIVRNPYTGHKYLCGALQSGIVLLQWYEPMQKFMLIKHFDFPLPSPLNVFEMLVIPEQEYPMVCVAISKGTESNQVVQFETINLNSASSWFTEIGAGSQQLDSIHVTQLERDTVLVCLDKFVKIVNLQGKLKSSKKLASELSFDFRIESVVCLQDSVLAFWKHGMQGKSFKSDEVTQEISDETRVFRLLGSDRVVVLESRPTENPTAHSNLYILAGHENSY

[12] = target: T8, MEK6 (MAP2K6) (Homo sapiens, UniProt P52564); experiment: as above
T8 construct: purchased KINOMEscan (DiscoveRx), San Diego, CA
T8 sequence (P52564 whole entry): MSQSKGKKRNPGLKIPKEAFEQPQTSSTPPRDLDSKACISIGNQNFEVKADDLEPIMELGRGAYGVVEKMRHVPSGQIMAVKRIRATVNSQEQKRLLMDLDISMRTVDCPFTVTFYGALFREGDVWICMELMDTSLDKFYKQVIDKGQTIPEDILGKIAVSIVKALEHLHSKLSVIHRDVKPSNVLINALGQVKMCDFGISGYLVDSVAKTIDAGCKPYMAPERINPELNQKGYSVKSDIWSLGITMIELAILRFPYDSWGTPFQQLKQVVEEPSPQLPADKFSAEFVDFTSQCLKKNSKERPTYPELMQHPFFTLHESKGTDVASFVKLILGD

[13] = target: T9, TAOK3 (Homo sapiens, UniProt Q9H2K8); experiment: as above
T9 construct: purchased KINOMEscan (DiscoveRx), San Diego, CA

[14] = target: T10, BLK (Homo sapiens, UniProt P51451); experiment: as above
T10 construct: purchased KINOMEscan (DiscoveRx), San Diego, CA
T10 sequence (P51451 whole entry): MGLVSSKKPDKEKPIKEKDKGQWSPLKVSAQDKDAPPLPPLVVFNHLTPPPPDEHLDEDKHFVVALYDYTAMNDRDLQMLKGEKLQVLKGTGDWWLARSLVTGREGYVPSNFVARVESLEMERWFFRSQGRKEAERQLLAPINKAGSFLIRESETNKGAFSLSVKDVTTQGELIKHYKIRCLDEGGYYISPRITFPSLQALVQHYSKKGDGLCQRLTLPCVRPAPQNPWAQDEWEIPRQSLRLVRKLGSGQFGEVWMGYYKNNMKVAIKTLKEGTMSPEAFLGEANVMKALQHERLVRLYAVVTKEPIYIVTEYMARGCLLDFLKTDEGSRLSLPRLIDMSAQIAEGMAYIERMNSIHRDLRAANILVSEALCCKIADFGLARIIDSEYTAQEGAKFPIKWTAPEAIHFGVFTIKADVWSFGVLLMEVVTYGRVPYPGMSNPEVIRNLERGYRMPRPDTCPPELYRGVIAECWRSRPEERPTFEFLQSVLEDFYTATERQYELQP

[15] = target: T11, MLK1 (MAP3K9) (Homo sapiens, UniProt P80192); details: ref Tsai et al., 2008; read-out: Published biochemical IC50; cited from earlier work
T11 construct: purchased KINOMEscan (DiscoveRx), San Diego, CA

[16] = target: T12, MINK (MINK1) (Homo sapiens, UniProt Q8N4C8); experiment: Quantitative competitive binding assay (KINOMEscan)
T12 construct: purchased KINOMEscan (DiscoveRx), San Diego, CA
T12 sequence (Q8N4C8 whole entry): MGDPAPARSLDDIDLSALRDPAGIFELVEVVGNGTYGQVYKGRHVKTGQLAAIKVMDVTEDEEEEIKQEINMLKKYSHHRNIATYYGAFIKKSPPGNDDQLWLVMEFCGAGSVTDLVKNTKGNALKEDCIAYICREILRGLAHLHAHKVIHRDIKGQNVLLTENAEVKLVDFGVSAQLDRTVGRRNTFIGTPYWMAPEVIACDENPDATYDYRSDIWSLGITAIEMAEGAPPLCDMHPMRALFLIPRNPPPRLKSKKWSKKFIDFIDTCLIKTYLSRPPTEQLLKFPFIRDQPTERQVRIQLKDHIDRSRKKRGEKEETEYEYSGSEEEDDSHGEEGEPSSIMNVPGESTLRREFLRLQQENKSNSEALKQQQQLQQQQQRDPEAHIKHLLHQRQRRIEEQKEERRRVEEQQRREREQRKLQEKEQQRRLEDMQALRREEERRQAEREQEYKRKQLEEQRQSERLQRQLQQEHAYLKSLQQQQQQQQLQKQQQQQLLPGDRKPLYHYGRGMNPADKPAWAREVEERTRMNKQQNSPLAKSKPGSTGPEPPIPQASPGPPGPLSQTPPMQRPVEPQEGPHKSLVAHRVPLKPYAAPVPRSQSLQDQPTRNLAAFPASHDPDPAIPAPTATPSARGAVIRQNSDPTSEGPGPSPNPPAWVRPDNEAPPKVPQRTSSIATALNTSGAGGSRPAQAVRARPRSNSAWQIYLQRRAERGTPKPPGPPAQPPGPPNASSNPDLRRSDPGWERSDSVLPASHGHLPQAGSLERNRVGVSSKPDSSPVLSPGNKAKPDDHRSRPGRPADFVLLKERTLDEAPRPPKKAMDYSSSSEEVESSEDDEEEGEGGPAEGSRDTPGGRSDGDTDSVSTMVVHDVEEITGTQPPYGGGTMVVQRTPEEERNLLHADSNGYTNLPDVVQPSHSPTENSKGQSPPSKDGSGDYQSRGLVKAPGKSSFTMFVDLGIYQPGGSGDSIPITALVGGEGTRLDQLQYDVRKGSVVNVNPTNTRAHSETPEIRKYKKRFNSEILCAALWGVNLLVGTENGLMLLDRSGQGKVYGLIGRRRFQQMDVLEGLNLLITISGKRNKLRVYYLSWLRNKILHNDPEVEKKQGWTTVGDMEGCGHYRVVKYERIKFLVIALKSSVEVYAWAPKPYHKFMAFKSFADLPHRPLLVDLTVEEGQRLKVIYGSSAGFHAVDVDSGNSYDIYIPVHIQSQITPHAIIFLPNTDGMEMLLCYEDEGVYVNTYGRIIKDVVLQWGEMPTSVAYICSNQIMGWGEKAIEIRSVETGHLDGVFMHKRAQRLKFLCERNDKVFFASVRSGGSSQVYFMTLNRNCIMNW

[17] = target: T13, MEK3 (MAP2K3) (Homo sapiens, UniProt P46734); experiment: as above
T13 construct: purchased KINOMEscan (DiscoveRx), San Diego, CA

[18] = target: BRK (PTK6) (Homo sapiens, UniProt Q13882); experiment: as above
[19] = read-out: Percent control (50 nM)
[20] = read-out: Percent control (200 nM)
[21] = read-out: Percent control (1000 nM)
[22] = read-out: Percent control (10 μM)
[23] = estimated Kd, averaged pointwise estimates, transformed Hill equation, read-out: Calculated estimate of IC50

T1 sequence (Q13546 whole entry): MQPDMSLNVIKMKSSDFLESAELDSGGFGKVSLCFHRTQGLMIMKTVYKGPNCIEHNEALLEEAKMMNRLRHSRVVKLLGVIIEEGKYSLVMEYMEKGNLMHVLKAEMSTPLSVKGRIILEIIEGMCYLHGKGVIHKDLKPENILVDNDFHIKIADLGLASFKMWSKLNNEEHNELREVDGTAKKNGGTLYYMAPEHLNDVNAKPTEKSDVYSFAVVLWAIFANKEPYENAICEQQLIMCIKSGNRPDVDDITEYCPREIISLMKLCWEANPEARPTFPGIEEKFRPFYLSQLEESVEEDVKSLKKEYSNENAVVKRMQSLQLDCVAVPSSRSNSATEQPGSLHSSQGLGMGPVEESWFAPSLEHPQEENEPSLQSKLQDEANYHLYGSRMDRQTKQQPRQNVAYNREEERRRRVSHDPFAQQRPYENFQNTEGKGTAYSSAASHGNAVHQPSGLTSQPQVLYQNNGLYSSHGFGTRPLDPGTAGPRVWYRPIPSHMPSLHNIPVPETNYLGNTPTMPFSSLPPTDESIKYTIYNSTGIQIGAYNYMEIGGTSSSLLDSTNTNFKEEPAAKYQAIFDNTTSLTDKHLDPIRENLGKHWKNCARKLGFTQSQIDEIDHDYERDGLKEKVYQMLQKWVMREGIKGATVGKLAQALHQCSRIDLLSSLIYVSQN

`CCCS(=O)(=O)Nc1ccc(F)c(C(=O)c2c[nH]c3ncc(Cl)cc23)c1F` [PLX4720] showed a remaining binding at 0.05 µM [1, 19] of 99%, a remaining binding at 0.2 µM [1, 20] of 87% and a remaining binding at 1 µM [1, 21] of 85%. The remaining binding at 10 µM [1, 22] was 50%, the remaining binding at 0.05 µM [2, 19] was 90% and the remaining binding at 0.2 µM [2, 20] was 88%. The remaining binding at 1 µM [2, 21] was 85%, the remaining binding at 10 µM [2, 22] was 49% and the “UV-induced NOXA expression” value [3] was “suppressed”. The phospho-ERK expression [4] was “strongly suppressed”, the “doxorubicin-induced apoptosis (Annexin V+, TMRE-low cells)” value [5] was “significant decrease in apoptosis” and the remaining binding at 0.05 µM [6, 19] was 94%. The remaining binding at 0.2 µM [6, 20] was 97%, the remaining binding at 1 µM [6, 21] was 98% and the remaining binding at 10 µM [6, 22] was 75%. The remaining binding at 0.05 µM [7, 19] was 100%, the remaining binding at 0.2 µM [7, 20] was 93% and the remaining binding at 1 µM [7, 21] was 87%. For the same compound, the remaining binding at 10 µM [7, 22] was 41%, the IC50 [8, 23] was 153 nM and the remaining binding at 0.05 µM [8, 19] was 69%. It also gave a remaining binding at 0.2 µM [8, 20] of 38%, a remaining binding at 1 µM [8, 21] of 11% and a remaining binding at 10 µM [8, 22] of 2.5%. The “direct inhibition of JNK and p38 isoforms” value [9] was “not significantly inhibited”, the remaining binding at 0.05 µM [10, 19] was 20% and the remaining binding at 0.2 µM [10, 20] was 4%. It also gave a remaining binding at 1 µM [10, 21] of 0.7%, a remaining binding at 10 µM [10, 22] of 0.1% and an IC50 [11, 23] of 1260 nM. For the same compound, the remaining binding at 0.05 µM [11, 19] was 96%, the remaining binding at 0.2 µM [11, 20] was 100% and the remaining binding at 1 µM [11, 21] was 63%. The remaining binding at 10 µM [11, 22] was 8%, the remaining binding at 0.05 µM [12, 19] was 82% and the remaining binding at 0.2 µM [12, 20] was 100%. For the same compound, the remaining binding at 1 µM [12, 21] was 100%, the remaining binding at 10 µM [12, 22] was 47% and the remaining binding at 0.05 µM [13, 19] was 100%. It also gave a remaining binding at 0.2 µM [13, 20] of 98%, a remaining binding at 1 µM [13, 21] of 96% and a remaining binding at 10 µM [13, 22] of 58%. For the same compound, the IC50 [14, 23] was 447 nM, the remaining binding at 0.05 µM [14, 19] was 91% and the remaining binding at 0.2 µM [14, 20] was 78%. The remaining binding at 1 µM [14, 21] was 32%, the remaining binding at 10 µM [14, 22] was 1% and the IC50 [15] was > 5000 nM. For the same compound, the remaining binding at 0.05 µM [16, 19] was 89%, the remaining binding at 0.2 µM [16, 20] was 100% and the remaining binding at 1 µM [16, 21] was 98%. It also gave a remaining binding at 10 µM [16, 22] of 55%, a remaining binding at 0.05 µM [17, 19] of 100% and a remaining binding at 0.2 µM [17, 20] of 100%. For the same compound, the remaining binding at 1 µM [17, 21] was 100%, the remaining binding at 10 µM [17, 22] was 64% and the IC50 [18, 23] was 30.4 nM. For the same compound, the remaining binding at 0.05 µM [18, 19] was 47%, the remaining binding at 0.2 µM [18, 20] was 14% and the remaining binding at 1 µM [18, 21] was 2.4%. It also gave a remaining binding at 10 µM [18, 22] of 0.2%.
